# Results taken from publication PMC7158214 (Clinical Pharmacology and Therapeutics, 2020).
# Several values for one entry are separate records, joined by “and”; a condition that tells them apart may be missing. Equal values may be shown once. Read-outs that look alike come from different tables or passages of the source.
# How the values were obtained:
# OATP1B [1] = assay: Nonlinear regression of AUCR^-1 vs rifampicin Cmax; type: in vivo, human; conditions: from AUCR based on AUC0-24h
# OATP1B [2] = conditions: +RIF600
# OATP1B [3] = assay: Effect of rifampicin on plasma AUC0-24h of endogenous compounds; type: in vivo, human; conditions: for AUC0-24h Geometric Mean Ratio Control/Baseline (90% CI): probe cocktail vs placebo day; for AUC0-24h Geometric Mean Ratio +RIF/Control (90% CI): +RIF600
# [4] = type: in vivo; conditions: human, plasma, po
# [5] = cited from earlier work
Compound,fRIF (fraction sensitive to inhibition by rifampicin) (OATP1B [1]),AUC0-24h Geometric Mean Ratio +RIF/Control (90% CI) (OATP1B [3]),other results
"O=C(O)C[C@H](O)C[C@H](O)/C=C/c1c(C2CC2)nc2ccccc2c1-c1ccc(F)cc1 [Pitavastatin, pitavastatin, reference compound]",0.810 ± 0.043,–,AUC0-24h Geometric Mean Ratio +RIF/Control (90% CI) (OATP1B [2]): 4.0
"C[C@H](CCC(=O)O[C@@H]1O[C@H](C(=O)O)[C@@H](O)[C@H](O)[C@H]1O)[C@H]1CC[C@H]2[C@@H]3[C@H](O)C[C@@H]4C[C@H](O)CC[C@]4(C)[C@H]3CC[C@]12C [CDCA-24G, chenodeoxycholate‐24‐glucuronide]",0.801 ± 0.124,–,AUC0-24h Geometric Mean Ratio Control/Baseline (90% CI) (OATP1B [3]): > 1.25 and 1.4
CO[C@H]1/C=C/O[C@@]2(C)Oc3c(C)c(O)c4c(O)c(c(/C=N/N5CCN(C)CC5)c(O)c4c3C2=O)NC(=O)/C(C)=C\C=C\[C@H](C)[C@H](O)[C@@H](C)[C@@H](O)[C@@H](C)[C@H](OC(C)=O)[C@@H]1C [rifampicin],–,–,AUC(0-t) ([4]; 150 mg): 19.8 ± 1.2 µM·h; Cmax ([4]; 150 mg): 4.78 ± 0.29 µM; AUC(0-t) ([4]; 300 mg): 55.5 ± 3.4 µM·h; AUC(0-t) ([4]; 600 mg): 141 ± 9 µM·h; Cmax ([4]; 600 mg): 22.8 ± 2.6 µM
"C[C@H](CCC(=O)NCC(=O)O)[C@H]1CC[C@H]2[C@@H]3CC[C@@H]4C[C@H](OS(=O)(=O)O)CC[C@]4(C)[C@H]3CC[C@]12C [GLCA-S, glycolithocholate‐3‐sulfate]",–,greater than 2,–
direct bilirubins [D-BIL],0.976 ± 0.180,2.8,–
"CC(C)c1nc(N(C)S(C)(=O)=O)nc(-c2ccc(F)cc2)c1/C=C/[C@@H](O)C[C@@H](O)CC(=O)O [Rosuvastatin, rosuvastatin]",0.702 ± 0.122,–,contribution of urinary excretion to the systemic elimination [5]: ca. 20%; AUC0-24h Geometric Mean Ratio +RIF/Control (90% CI) (OATP1B [2]): 2.5
"C[C@H](CCC(=O)NCC(=O)O)[C@H]1CC[C@H]2[C@@H]3[C@H](O)C[C@@H]4C[C@H](O[C@@H]5O[C@H](C(=O)O)[C@@H](O)[C@H](O)[C@H]5O)CC[C@]4(C)[C@H]3CC[C@]12C [GCDCA-G, glycochenodeoxycholate‐3‐glucuronide]",1 ± 0.08,~ 15,–
"CCCCC(=O)N(Cc1ccc(-c2ccccc2-c2nnn[nH]2)cc1)[C@H](C(=O)O)C(C)C [Valsartan, valsartan, reference compound]",0.831 ± 0.036,–,AUC0-24h Geometric Mean Ratio +RIF/Control (90% CI) (OATP1B [2]): 5.5
"C[C@H](CCC(=O)NCCS(=O)(=O)O)[C@H]1CC[C@H]2[C@@H]3CC[C@@H]4C[C@H](OS(=O)(=O)O)CC[C@]4(C)[C@H]3CC[C@]12C [TLCA-S, taurolithocholate‐3‐sulfate]",–,greater than 2,–
"C[C@H](CCC(=O)NCC(=O)O)[C@H]1CC[C@H]2[C@@H]3CC[C@@H]4C[C@H](OS(=O)(=O)O)CC[C@]4(C)[C@H]3C[C@H](O)[C@]12C [GDCA-S, glycodeoxycholate‐3‐sulfate]",–,greater than 2,–
"C[C@H](CCC(=O)NCC(=O)O)[C@H]1CC[C@H]2[C@@H]3[C@H](O)C[C@@H]4C[C@H](O)CC[C@]4(C)[C@H]3C[C@H](O)[C@]12C [GCA, glycocholate]",–,–,AUC0-24h Geometric Mean Ratio Control/Baseline (90% CI) (OATP1B [3]): > 1.25
"O=C(O)CCCCCCCCCCCCCCC(=O)O [HDA, hexadecanedioic acid]",0.776 ± 0.093,–,–
"C[C@H](CCC(=O)NCC(=O)O)[C@H]1CC[C@H]2[C@@H]3[C@H](O)C[C@@H]4C[C@H](O)CC[C@]4(C)[C@H]3CC[C@]12C [GCDCA, glycochenodexoxycholate]",–,–,AUC0-24h Geometric Mean Ratio Control/Baseline (90% CI) (OATP1B [3]): > 1.25
